Measured values reported in PubChem BioAssay AID1963446 (Molecular Pharmacology Branch, DTP, NCI, 2024).
Where “and” joins values, the source holds several entries; their conditions need not be identical. Equal entries are not always repeated. One block for each compound: values may come before it.

Test system: 993429-296-R-J1-PDC complex spheroid growth, percent test/control
Assay: Anticancer human tumor 993429-296-R-J1-PDC patient-derived uterine sarcoma cell line growth inhibition [Asc]
Conditions: for viability, T/C: stronger effect = lower value
In short: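 Spheroid model: tumor line + HUVEC + hMSC. Single agents and combinations; top conc. at/near clinical Cmax (10 microM if undetermined), half-log dilutions. DMSO stocks at 800-fold test concentration.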
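Further: spheroids exposed to compounds for seven days.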

IC50 (curve of first compound, second compound 0.01 µM): 56.5 nM
IC50 (curve of first compound, second compound 0.0316 µM): 30.9 nM
IC50 (curve of first compound, second compound 0.1 µM): 27.2 nM
IC50 (curve of first compound, second compound 0.316 µM): < 3.16 nM
IC50 (curve of first compound, second compound 1 µM): 11.4 nM
Compound: O=C(c1ccc(F)c(F)c1Nc1ccc(I)cc1F)N1CC(O)([C@@H]2CCCCN2)C1 + CNC(C)C(=O)NC1CN(S(=O)(=O)c2cccc(S(=O)(=O)N3CCC4CCC(C(=O)NC(c5ccccc5)c5ccccc5)N4C(=O)C(NC(=O)C(C)NC)C3)c2)CCC2CCC(C(=O)NC(c3ccccc3)c3ccccc3)N2C1=O
viability, T/C (second compound 0.01 µM, first compound 0.00316 µM): 65.5%
viability, T/C (second compound 0.01 µM, first compound 0.01 µM): 64.5%
viability, T/C (second compound 0.01 µM, first compound 0.0316 µM): 50.4%
viability, T/C (second compound 0.01 µM, first compound 0.1 µM): 48.9%
viability, T/C (second compound 0.01 µM, first compound 0.316 µM): 25.3%
viability, T/C (second compound 0.01 µM, first compound 1 µM): 1.67%
viability, T/C (second compound 0.0316 µM, first compound 0.00316 µM): 61.7%
viability, T/C (second compound 0.0316 µM, first compound 0.01 µM): 51.2%
viability, T/C (second compound 0.0316 µM, first compound 0.0316 µM): 55.2%
viability, T/C (second compound 0.0316 µM, first compound 0.1 µM): 33.4%
viability, T/C (second compound 0.0316 µM, first compound 0.316 µM): 19.1%
viability, T/C (second compound 0.0316 µM, first compound 1 µM): 1.07%
viability, T/C (second compound 0.1 µM, first compound 0.00316 µM): 56.4%
viability, T/C (second compound 0.1 µM, first compound 0.01 µM): 57.5%
viability, T/C (second compound 0.1 µM, first compound 0.0316 µM): 50.7%
viability, T/C (second compound 0.1 µM, first compound 0.1 µM): 29.6%
viability, T/C (second compound 0.1 µM, first compound 0.316 µM): 14.9%
viability, T/C (second compound 0.1 µM, first compound 1 µM): 1.5%
viability, T/C (second compound 0.316 µM, first compound 0.00316 µM): 48.3%
viability, T/C (second compound 0.316 µM, first compound 0.01 µM): 45.4%
viability, T/C (second compound 0.316 µM, first compound 0.0316 µM): 50.7%
viability, T/C (second compound 0.316 µM, first compound 0.1 µM): 34.1%
viability, T/C (second compound 0.316 µM, first compound 0.316 µM): 11%
viability, T/C (second compound 0.316 µM, first compound 1 µM): 0.99%
viability, T/C (second compound 1 µM, first compound 0.00316 µM): 54.8%
viability, T/C (second compound 1 µM, first compound 0.01 µM): 48.4%
viability, T/C (second compound 1 µM, first compound 0.0316 µM): 43.6%
viability, T/C (second compound 1 µM, first compound 0.1 µM): 38.5%
viability, T/C (second compound 1 µM, first compound 0.316 µM): 12.7%
viability, T/C (second compound 1 µM, first compound 1 µM): 0.99%

Compound: Cc1c(S(C)(=O)=O)c(-c2cc(F)cc(N3CCN(c4ccc(NS(=O)(=O)c5ccc(NC(CCN6CCC(C(=O)OCCCP(=O)(O)O)CC6)CSc6ccccc6)c(S(=O)(=O)C(F)(F)F)c5)cc4)CC3)c2)c(-c2ccc(Cl)cc2)n1C(C)C (centres undefined)
viability, T/C (compound 0.316 µM): 60.7% [middle of 14 runs]
viability, T/C (compound 3.16 µM): 49.6% [middle of 14 runs]

IC50 (curve of compound): 52.4 nM and > 100 nM and 58.6 nM
Compound: Cn1ncnc1[C@H]1c2n[nH]c(=O)c3cc(F)cc(c23)N[C@@H]1c1ccc(F)cc1
viability, T/C (compound 0.000316 µM): 92.8% and 98.9% and 94.3%
viability, T/C (compound 0.001 µM): 93.2% and 97.5% and 95.5%
viability, T/C (compound 0.00316 µM): 83.8% and 99.4% and 81.2%
viability, T/C (compound 0.01 µM): 74.3% and 92% and 84.6%
viability, T/C (compound 0.0316 µM): 62.5% and 70.2% and 57.7%
viability, T/C (compound 0.1 µM): 35.8% and 69.9% and 42%

IC50 (curve of first compound, second compound 0.03 µM): 42.6 nM
IC50 (curve of first compound, second compound 0.0949 µM): 64.6 nM
IC50 (curve of first compound, second compound 0.3 µM): 42.4 nM
IC50 (curve of first compound, second compound 0.949 µM): 50.1 nM
IC50 (curve of first compound, second compound 3 µM): 19.3 nM
Compound: O=C(c1ccc(F)c(F)c1Nc1ccc(I)cc1F)N1CC(O)([C@@H]2CCCCN2)C1 + CCN1C(C(=O)NC23CCC(C(=O)O)(CC2)CC3)C(c2cccc(Cl)c2F)C2(C(=O)Nc3cc(Cl)ccc32)C12CCCCC2
viability, T/C (second compound 0.03 µM, first compound 0.00316 µM): 98%
viability, T/C (second compound 0.03 µM, first compound 0.01 µM): 72.2%
viability, T/C (second compound 0.03 µM, first compound 0.0316 µM): 58%
viability, T/C (second compound 0.03 µM, first compound 0.1 µM): 38.7%
viability, T/C (second compound 0.03 µM, first compound 0.316 µM): 8.47%
viability, T/C (second compound 0.03 µM, first compound 1 µM): 1.77%
viability, T/C (second compound 0.0949 µM, first compound 0.00316 µM): 80.2%
viability, T/C (second compound 0.0949 µM, first compound 0.01 µM): 87.7%
viability, T/C (second compound 0.0949 µM, first compound 0.0316 µM): 66%
viability, T/C (second compound 0.0949 µM, first compound 0.1 µM): 39.8%
viability, T/C (second compound 0.0949 µM, first compound 0.316 µM): 8.87%
viability, T/C (second compound 0.0949 µM, first compound 1 µM): 1.19%
viability, T/C (second compound 0.3 µM, first compound 0.00316 µM): 85.8%
viability, T/C (second compound 0.3 µM, first compound 0.01 µM): 74.7%
viability, T/C (second compound 0.3 µM, first compound 0.0316 µM): 61.1%
viability, T/C (second compound 0.3 µM, first compound 0.1 µM): 22.3%
viability, T/C (second compound 0.3 µM, first compound 0.316 µM): 8.15%
viability, T/C (second compound 0.3 µM, first compound 1 µM): 2.9%
viability, T/C (second compound 0.949 µM, first compound 0.00316 µM): 86.8%
viability, T/C (second compound 0.949 µM, first compound 0.01 µM): 67.3%
viability, T/C (second compound 0.949 µM, first compound 0.0316 µM): 66.3%
viability, T/C (second compound 0.949 µM, first compound 0.1 µM): 30.9%
viability, T/C (second compound 0.949 µM, first compound 0.316 µM): 8.19%
viability, T/C (second compound 0.949 µM, first compound 1 µM): 2.6%
viability, T/C (second compound 3 µM, first compound 0.00316 µM): 74.9%
viability, T/C (second compound 3 µM, first compound 0.01 µM): 64.4%
viability, T/C (second compound 3 µM, first compound 0.0316 µM): 38.3%
viability, T/C (second compound 3 µM, first compound 0.1 µM): 20.6%
viability, T/C (second compound 3 µM, first compound 0.316 µM): 5.52%
viability, T/C (second compound 3 µM, first compound 1 µM): 0.67%
